In patent US7285395B2, “Stearoyl-CoA desaturase 4 gene” (Wisconsin Alumni Research Foundation, priority 2004, dated 2007):

Experiments:
Type in all cases: in vivo, mouse
Details in all cases: heart, 129SV mice, chow diet containing 0.025% T0901317 fed for 2 days
mSCD2 = experiment: quantitative RT-PCR of mSCD2 mRNA in hearts of mice fed test diets
Procedure: (§1) The mice were fed the following diets. A, a high carbohydrate fat-free diet (CHO-FF). B, high carbohydrate fat-free diet supplemented with fish oil (CHO-FO) that was fed for 4 days. C, chow diet supplemented with the LXRα agonist T0901317 (LXR) and fed for 2 days. Total RNA from hearts of mice from each group (n=4) was subjected to quantitative RT-PCR using specific primers as described in the example below. The fold change was calculated after correction for the levels of cyclophilin used as a standard. Each value represents the mean±S.E. (n=4). *, p<0.01; **, p<0.001 versus wild type (Student's t test).
(§2) Animals and Diets—Male C57BL6J and ob/ob mice were obtained from the Jackson Laboratory (Bar Harbor, Me.). 129S6/SvEv mice were purchased from Taconic (Germantown, N.Y.). […]
(§3) Cloning and Expression of the Mouse SCD4 cDNA—A BLAST search of the mouse genomic data base identified a gene with exon sequences highly homologous to the amino acid sequence of mouse SCD1, 2, and 3 (GenBank™ accession numbers AH—002082, M26270, and AF272037, respectively). Using the genomic sequence, a candidate open reading frame of the putative SCD4 was cloned by synthesizing a forward and a reverse primer. […]

mSCD1 = experiment: quantitative RT-PCR of mSCD1 mRNA in hearts of mice fed test diets
Procedure: as §1, §2, §3

mSCD4 = experiment: quantitative RT-PCR of mSCD4 mRNA in hearts of mice fed test diets
Procedure: as §1, §2, §3

O=S(=O)(c1ccccc1)N(CC(F)(F)F)c1ccc(C(O)(C(F)(F)F)C(F)(F)F)cc1 [T0901317]
induction of mouse SCD2 mRNA (mSCD2): 12 fold | induction of mouse SCD1 mRNA (mSCD1): 18 fold | induction of mouse SCD4 mRNA (mSCD4): 60 fold
